Laboratory results published in ChEMBL document CHEMBL4312017, “Synthesis and discovery of new compounds bearing coumarin scaffold for the treatment of pulmonary fibrosis” (Eur J Med Chem, 2020).
Activity calls are given as the source filed them. The rule behind the calls is not given here.

Assays:
[1] = Toxicity in BLM-induced C57BL/6 mouse pulmonary fibrosis model assessed as survival rate at 50 and 100 mg/kg, po observed for 28 days; type: organism-based; conditions: in vivo
NRK-49F [2] = assay: Inhibition of TGF-beta-induced collagen accumulation in rat NRK-49F cells at 10 uM incubated for 2 days by PSR staining based microscopic analysis relative to control; type: functional; conditions: 48 h
[3] = Cytotoxicity against rat NRK-49F cells assessed as cell viability at 10 uM incubated for 72 hrs by MTT assay; type: cell-based; conditions: read-out: Activity
NRK-49F [4] = assay: Inhibition of TGF-beta-induced collagen accumulation in rat NRK-49F cells incubated for 2 days by PSR staining based microscopic analysis; type: functional, cell-based
NIH3T3 = assay: Inhibition of TGF-beta-induced […] migration in mouse NIH/3T3 cells at 1 uM incubated for 24 hrs by Transwell assay; type: functional, cell-based
[5] = biological target: T1, Transforming growth factor beta-1 proprotein/Smad3 (Rattus norvegicus) (UniProt P84025+P17246); assay: Inhibition of TGFbeta/Smad3 pathway in rat NRK-49F cells assessed as reduction in TGF-beta1-induced COL1A1 expression in at 20 and 40 uM incubated for 24 hrs by Western blot analysis; type: cell-based
[6] = biological target: T1, Transforming growth factor beta-1 proprotein/Smad3 (Rattus norvegicus); assay: Inhibition of TGFbeta/Smad3 pathway in rat NRK-49F cells assessed as reduction in TGF-beta1-induced alpha-SMA expression in at 20 and 40 uM incubated for 24 hrs by Western blot analysis; type: cell-based
[7] = biological target: T1, Transforming growth factor beta-1 proprotein/Smad3 (Rattus norvegicus); assay: Inhibition of TGFbeta/Smad3 pathway in rat NRK-49F cells assessed as reduction in TGF-beta1-induced Smad3 phosphorylation at 20 and 40 uM incubated for 24 hrs by Western blot analysis; type: cell-based
[8] = Cmax in Sprague-Dawley rat at 5 mg/kg, iv measured upto 24 hrs; type: ADME, organism-based; design: dose 5 mg/kg, route intravenous; conditions: in vivo
[9] = Tmax in Sprague-Dawley rat at 5 mg/kg, iv measured upto 24 hrs; type: ADME, organism-based; conditions: in vivo
[10] = Half life in Sprague-Dawley rat at 5 mg/kg, iv measured upto 24 hrs; type: ADME, organism-based; conditions: in vivo
[11] = AUC (0 to t) in Sprague-Dawley rat at 5 mg/kg, iv measured upto 24 hrs; type: ADME, organism-based; design: dose 5 mg/kg, time < 24 hr, route intravenous; conditions: in vivo
[12] = Cmax in Sprague-Dawley rat at 10 mg/kg, po measured upto 24 hrs; type: ADME, organism-based; design: dose 10 mg/kg, route oral; conditions: in vivo
[13] = Tmax in Sprague-Dawley rat 10 mg/kg, po measured upto 24 hrs; type: ADME, organism-based; conditions: in vivo
[14] = Half life in Sprague-Dawley rat 10 mg/kg, po measured upto 24 hrs; type: ADME, organism-based; conditions: in vivo
[15] = AUC (0 to t) in Sprague-Dawley rat 10 mg/kg, po measured upto 24 hrs; type: ADME, organism-based; design: time < 24 hr, dose 10 mg/kg, route oral; conditions: in vivo
[16] = Oral bioavailability in Sprague-Dawley rat 10 mg/kg measured upto 24 hrs; type: ADME, organism-based; conditions: in vivo
[17] = Clearance in Sprague-Dawley rat 10 mg/kg, po measured upto 24 hrs; type: ADME, organism-based; conditions: in vivo
Mus musculus [18] = assay: Antifibrotic activity against C57BL/6 mouse pulmonary fibrosis model assessed as reduction in bleomycin-iduced hydroxyproline level at 50 mg/kg, po administered for 28 days and measured on day 14 and 28 by spectrophotometry; type: functional, organism-based
Mus musculus [19] = assay: Antifibrotic activity against C57BL/6 mouse pulmonary fibrosis model assessed as reduction in bleomycin-iduced hydroxyproline level at 100 mg/kg, po administered for 28 days and measured on day 14 and 28 by spectrophotometry; type: functional, organism-based
Mus musculus [20] = assay: Antifibrotic activity against BLM-induced C57BL/6 mouse pulmonary fibrosis model assessed as decrease in bronchiolar epithelial cell shedding at 50 mg/kg, po administered for 28 days and measured on day 14 and 28 by HE staining based fluorescence microscopy; type: functional, organism-based
Mus musculus [21] = assay: Antifibrotic activity against BLM-induced C57BL/6 mouse pulmonary fibrosis model assessed as decrease in bronchioles inflammatory cell infiltration at 50 mg/kg, po administered for 28 days and measured on day 14 and 28 by HE staining based fluorescence microscopy; type: functional, organism-based
Mus musculus [22] = assay: Antifibrotic activity against BLM-induced C57BL/6 mouse pulmonary fibrosis model assessed as decrease in perivascular inflammatory cell infiltration at 50 mg/kg, po administered for 28 days and measured on day 14 and 28 by HE staining based fluorescence microscopy; type: functional, organism-based
Mus musculus [23] = assay: Antifibrotic activity against BLM-induced C57BL/6 mouse pulmonary fibrosis model assessed as decrease in bronchial epithelial vacuolar degeneration at 50 mg/kg, po administered for 28 days and measured on day 14 and 28 by HE staining based fluorescence microscopy; type: functional, organism-based
Mus musculus [24] = assay: Antifibrotic activity against BLM-induced C57BL/6 mouse pulmonary fibrosis model assessed as decrease in bronchiolar epithelial cell shedding at 100 mg/kg, po administered for 28 days and measured on day 14 and 28 by HE staining based fluorescence microscopy; type: functional, organism-based
Mus musculus [25] = assay: Antifibrotic activity against BLM-induced C57BL/6 mouse pulmonary fibrosis model assessed as decrease in bronchioles inflammatory cell infiltration at 100 mg/kg, po administered for 28 days and measured on day 14 and 28 by HE staining based fluorescence microscopy; type: functional, organism-based
Mus musculus [26] = assay: Antifibrotic activity against BLM-induced C57BL/6 mouse pulmonary fibrosis model assessed as decrease in perivascular inflammatory cell infiltration at 100 mg/kg, po administered for 28 days and measured on day 14 and 28 by HE staining based fluorescence microscopy; type: functional, organism-based
Mus musculus [27] = assay: Antifibrotic activity against BLM-induced C57BL/6 mouse pulmonary fibrosis model assessed as decrease in bronchial epithelial vacuolar degeneration at 100 mg/kg, po administered for 28 days and measured on day 14 and 28 by HE staining based fluorescence microscopy; type: functional, organism-based
Mus musculus [28] = assay: Antifibrotic activity against BLM-induced C57BL/6 mouse pulmonary fibrosis model assessed as reduction in total white blood cells in BALF at 50 mg/kg, po administered for 28 days and measured on day 28; type: functional, organism-based
Mus musculus [29] = assay: Antifibrotic activity against BLM-induced C57BL/6 mouse pulmonary fibrosis model assessed as reduction in neutrophils in BALF at 50 mg/kg, po administered for 28 days and measured on day 28; type: functional, organism-based
Mus musculus [30] = assay: Antifibrotic activity against BLM-induced C57BL/6 mouse pulmonary fibrosis model assessed as reduction in lymphocytes in BALF at 50 mg/kg, po administered for 28 days and measured on day 28; type: functional, organism-based
Mus musculus [31] = assay: Antifibrotic activity against BLM-induced C57BL/6 mouse pulmonary fibrosis model assessed as reduction in total white blood cells in BALF at 100 mg/kg, po administered for 28 days and measured on day 28; type: functional, organism-based
Mus musculus [32] = assay: Antifibrotic activity against BLM-induced C57BL/6 mouse pulmonary fibrosis model assessed as reduction in neutrophils in BALF at 100 mg/kg, po administered for 28 days and measured on day 28; type: functional, organism-based
Mus musculus [33] = assay: Antifibrotic activity against BLM-induced C57BL/6 mouse pulmonary fibrosis model assessed as reduction in lymphocytes in BALF at 100 mg/kg, po administered for 28 days and measured on day 28; type: functional, organism-based
Mus musculus [34] = assay: Antifibrotic activity against BLM-induced C57BL/6 mouse pulmonary fibrosis model assessed as increase in time for reduction of alveoli at 50 mg/kg, po administered for 28 days and measured on day 14 and 28 by HE staining based fluorescence microscopy; type: functional, organism-based
Mus musculus [35] = assay: Antifibrotic activity against BLM-induced C57BL/6 mouse pulmonary fibrosis model assessed as decrease in destruction alveolar structure at 50 mg/kg, po administered for 28 days and measured on day 14 and 28 by HE staining based fluorescence microscopy; type: functional, organism-based
Mus musculus [36] = assay: Antifibrotic activity against BLM-induced C57BL/6 mouse pulmonary fibrosis model assessed as increase in time for reduction of alveoli at 100 mg/kg, po administered for 28 days and measured on day 14 and 28 by HE staining based fluorescence microscopy; type: functional, organism-based
Mus musculus [37] = assay: Antifibrotic activity against BLM-induced C57BL/6 mouse pulmonary fibrosis model assessed as decrease in destruction alveolar structure at 100 mg/kg, po administered for 28 days and measured on day 14 and 28 by HE staining based fluorescence microscopy; type: functional, organism-based

T1 sequence (P17246 whole entry, looked up): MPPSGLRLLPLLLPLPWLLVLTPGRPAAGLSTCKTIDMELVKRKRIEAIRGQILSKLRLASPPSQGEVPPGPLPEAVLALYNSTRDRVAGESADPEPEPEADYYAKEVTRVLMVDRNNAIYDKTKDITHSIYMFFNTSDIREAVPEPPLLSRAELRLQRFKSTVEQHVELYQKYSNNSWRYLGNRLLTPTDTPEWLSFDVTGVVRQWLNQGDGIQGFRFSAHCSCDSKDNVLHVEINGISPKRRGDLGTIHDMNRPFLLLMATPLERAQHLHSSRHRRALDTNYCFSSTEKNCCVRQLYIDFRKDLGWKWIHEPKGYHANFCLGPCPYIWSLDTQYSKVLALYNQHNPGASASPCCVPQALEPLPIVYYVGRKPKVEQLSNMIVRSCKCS
T1 sequence (P84025 whole entry, looked up): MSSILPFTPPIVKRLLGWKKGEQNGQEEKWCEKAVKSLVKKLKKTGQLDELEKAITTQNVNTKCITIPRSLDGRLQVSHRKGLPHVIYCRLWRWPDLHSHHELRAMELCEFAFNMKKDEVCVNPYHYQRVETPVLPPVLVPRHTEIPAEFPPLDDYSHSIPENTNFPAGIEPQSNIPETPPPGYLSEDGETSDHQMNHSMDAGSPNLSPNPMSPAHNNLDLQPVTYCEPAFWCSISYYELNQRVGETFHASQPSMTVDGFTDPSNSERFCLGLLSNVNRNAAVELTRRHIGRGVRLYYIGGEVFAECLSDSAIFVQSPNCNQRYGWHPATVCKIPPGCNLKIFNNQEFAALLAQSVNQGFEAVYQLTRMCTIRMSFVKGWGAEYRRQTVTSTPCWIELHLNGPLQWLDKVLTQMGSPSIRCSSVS

Work on `O=C(CN1CCCCC1)Nc1ccc(Oc2cc(=O)oc3ccccc23)cc1` yielded a survival at 672 h [1] of 90%, an inhibition at 10 µM (NRK-49F [2]) of 85.1% and a viability at 72 h, 10 µM [3] of 93.6%. For the same molecule, the inhibition (NRK-49F [4]) was “Dose-dependent effect”, the IC50 (NRK-49F [4]; 48 h) was 4.31 µM and the inhibition (NIH3T3) was “Active”. For the same molecule, the inhibition [5] was “Active”, the inhibition [6] was “Active” and the inhibition [7] was “Active”. The Cmax [8] was 316 ng/mL, the Tmax [9] was 2.68 h and the half-life [10] was 7.42 h. The AUC(0-t) at 24 h [11] was 1390 ng·h/mL, the Cmax [12] was 74.7 ng/mL and the Tmax [13] was 0.63 h. The half-life [14] was 13.1 h, the AUC(0-t) at 24 h [15] was 1100 ng·h/mL and the bioavailability [16] was 39.9%. The CL/F [17] was 108 mL/min/kg, the Activity (Mus musculus [18]) was “inactive” and the Activity (Mus musculus [19]) was “Active”. The Activity (Mus musculus [20]) was “Active”, the Activity (Mus musculus [21]) was “Active” and the Activity (Mus musculus [22]) was “Active”. The Activity (Mus musculus [23]) was “Active”, the Activity (Mus musculus [24]) was “Active” and the Activity (Mus musculus [25]) was “Active”. The Activity (Mus musculus [26]) was “Active”, the Activity (Mus musculus [27]) was “Active” and the Activity (Mus musculus [28]) was “Active”. For the same molecule, the Activity (Mus musculus [29]) was “Active”, the Activity (Mus musculus [30]) was “Active” and the Activity (Mus musculus [31]) was “Active”. For the same molecule, the Activity (Mus musculus [32]) was “Active”, the Activity (Mus musculus [33]) was “Active” and the Activity (Mus musculus [34]) was “Active”. For the same molecule, the Activity (Mus musculus [35]) was “Active”, the Activity (Mus musculus [36]) was “Active” and the Activity (Mus musculus [37]) was “Active”.
